Experiments:
Assay in all cases: KinomeScan competition binding assay
Details in all cases: 10 μM compound
CLK2 = molecular target: T1, CLK2 (Homo sapiens, UniProt P49760)
T1 construct: purchased KinomeScan, a division of Ambit Biosciences
Text: (§1) This similarity led us to test SNX14 for the ability to inhibit 285 kinases, using the services of KinaseProfiler of Millipore Corporation (285 kinases). […] The KINOMEscan assay has been described in detail in Fabian et al., Nat. Biotechnol. 23: 329 (2005) and Karaman et al., Nat. Biotechnol. 26: 127 (2008).
(§2) The KinomeScan assay is based on a competition binding assay that quantitatively measures the ability of a compound to compete with an immobilized, ATP site directed ligand. The assay is performed by combining three components: DNA-tagged kinase; immobilized ligand; and a test compound. The ability of the test compound to compete with the immobilized ligand is measured via quantitative PCR of the DNA tag. […] The CDKs tested by Millipore for inhibition with SNX14 included CDK1, CDK2, CDK3, CDK5, CDK7 and CDK9; none of these were inhibited to less than 49 percent of control (POC) activity. The CDKs tested by KinomeScan for the effect of Compound 1 included CDK2, CDK3, CDK4, CDK5, CDK7, CDK8, CDK9 and CDK19; aside from CDK8 and CDK19, the strongest inhibited CDK was CDK7 (33% POC binding). To determine the inhibition of which kinases correlates with the biological activity of SNX2-class compounds, we tested eight additional compounds of the SNX2 family, which gave different IC50 values in the cellular assays, for the ability to affect 24 kinases that were most susceptible to compound 1, through the services of KinomeScan. […] We have also determined the binding constant (Kd) for SNX14, compound 1, compound 20, compound 26, compound 43 and compound 14 in kinase assays for CDK8 and CDK19 (Table 1).

EGFR (G719C) = molecular target: T2, EGFR (G719C) (Homo sapiens, UniProt P00533, G719C)
T2 construct: purchased KinomeScan, a division of Ambit Biosciences
Text: as §1, §2

MEK3 = molecular target: T3, MEK3 (Homo sapiens, UniProt P46734)
T3 construct: purchased KinomeScan, a division of Ambit Biosciences
T3 sequence (P46734 1-347): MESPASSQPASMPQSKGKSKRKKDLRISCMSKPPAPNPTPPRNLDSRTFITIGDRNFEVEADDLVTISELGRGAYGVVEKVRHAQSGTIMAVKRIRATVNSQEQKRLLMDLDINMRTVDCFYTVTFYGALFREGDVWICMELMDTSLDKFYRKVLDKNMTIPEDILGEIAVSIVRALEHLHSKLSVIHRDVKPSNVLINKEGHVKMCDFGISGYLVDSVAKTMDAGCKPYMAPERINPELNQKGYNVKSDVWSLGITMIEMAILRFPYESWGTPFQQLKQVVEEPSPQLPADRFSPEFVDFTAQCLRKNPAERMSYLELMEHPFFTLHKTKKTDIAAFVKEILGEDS
Text: as §1, §2

MAPKAPK5 = molecular target: T4, MAPKAPK5 (Homo sapiens, UniProt Q8IW41)
T4 construct: purchased KinomeScan, a division of Ambit Biosciences
T4 sequence (Q8IW41 1-473): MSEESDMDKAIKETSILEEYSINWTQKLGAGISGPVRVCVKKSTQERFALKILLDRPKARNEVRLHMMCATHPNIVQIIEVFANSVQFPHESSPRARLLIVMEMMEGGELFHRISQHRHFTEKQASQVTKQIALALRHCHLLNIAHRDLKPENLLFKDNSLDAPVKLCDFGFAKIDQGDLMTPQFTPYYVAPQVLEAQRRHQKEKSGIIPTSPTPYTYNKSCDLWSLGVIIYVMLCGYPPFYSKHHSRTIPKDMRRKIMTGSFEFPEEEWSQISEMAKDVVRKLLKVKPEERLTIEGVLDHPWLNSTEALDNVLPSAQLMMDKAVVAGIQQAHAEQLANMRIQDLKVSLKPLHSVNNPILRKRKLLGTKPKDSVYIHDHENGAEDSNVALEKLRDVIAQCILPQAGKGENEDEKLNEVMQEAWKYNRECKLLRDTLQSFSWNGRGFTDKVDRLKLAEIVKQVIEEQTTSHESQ
Text: as §1, §2

FLT3 (D835Y) = molecular target: T5, FLT3 (D835Y) (Homo sapiens, UniProt P36888, D835Y)
T5 construct: purchased KinomeScan, a division of Ambit Biosciences
T5 sequence (P36888 27-993 D835Y): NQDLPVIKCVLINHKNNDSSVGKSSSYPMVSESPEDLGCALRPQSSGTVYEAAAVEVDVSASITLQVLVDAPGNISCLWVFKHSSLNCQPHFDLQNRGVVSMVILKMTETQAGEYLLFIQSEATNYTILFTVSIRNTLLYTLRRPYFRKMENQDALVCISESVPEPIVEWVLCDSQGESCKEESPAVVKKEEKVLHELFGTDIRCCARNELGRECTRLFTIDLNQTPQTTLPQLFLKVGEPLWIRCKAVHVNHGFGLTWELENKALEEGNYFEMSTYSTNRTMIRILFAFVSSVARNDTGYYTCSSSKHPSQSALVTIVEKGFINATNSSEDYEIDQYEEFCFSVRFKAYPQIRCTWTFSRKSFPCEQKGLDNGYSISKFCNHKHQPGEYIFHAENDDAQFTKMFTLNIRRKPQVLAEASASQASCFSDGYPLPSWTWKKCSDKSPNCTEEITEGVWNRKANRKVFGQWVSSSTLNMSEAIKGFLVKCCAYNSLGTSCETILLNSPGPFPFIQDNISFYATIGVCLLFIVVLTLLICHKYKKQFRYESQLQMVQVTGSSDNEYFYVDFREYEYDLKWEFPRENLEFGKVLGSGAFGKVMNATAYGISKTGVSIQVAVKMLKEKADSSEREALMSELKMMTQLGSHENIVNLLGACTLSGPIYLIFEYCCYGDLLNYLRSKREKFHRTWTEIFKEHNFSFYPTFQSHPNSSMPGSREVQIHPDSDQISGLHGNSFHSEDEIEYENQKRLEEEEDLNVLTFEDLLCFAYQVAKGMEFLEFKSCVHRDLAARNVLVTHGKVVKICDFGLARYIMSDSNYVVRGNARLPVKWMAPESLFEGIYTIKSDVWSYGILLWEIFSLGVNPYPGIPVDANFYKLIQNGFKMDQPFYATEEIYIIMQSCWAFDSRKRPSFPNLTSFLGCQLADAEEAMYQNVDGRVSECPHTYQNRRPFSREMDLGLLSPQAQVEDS
Text: as §1, §2

BTK = molecular target: T6, BTK (Homo sapiens, UniProt Q06187)
T6 construct: purchased KinomeScan, a division of Ambit Biosciences
T6 sequence (Q06187 whole entry): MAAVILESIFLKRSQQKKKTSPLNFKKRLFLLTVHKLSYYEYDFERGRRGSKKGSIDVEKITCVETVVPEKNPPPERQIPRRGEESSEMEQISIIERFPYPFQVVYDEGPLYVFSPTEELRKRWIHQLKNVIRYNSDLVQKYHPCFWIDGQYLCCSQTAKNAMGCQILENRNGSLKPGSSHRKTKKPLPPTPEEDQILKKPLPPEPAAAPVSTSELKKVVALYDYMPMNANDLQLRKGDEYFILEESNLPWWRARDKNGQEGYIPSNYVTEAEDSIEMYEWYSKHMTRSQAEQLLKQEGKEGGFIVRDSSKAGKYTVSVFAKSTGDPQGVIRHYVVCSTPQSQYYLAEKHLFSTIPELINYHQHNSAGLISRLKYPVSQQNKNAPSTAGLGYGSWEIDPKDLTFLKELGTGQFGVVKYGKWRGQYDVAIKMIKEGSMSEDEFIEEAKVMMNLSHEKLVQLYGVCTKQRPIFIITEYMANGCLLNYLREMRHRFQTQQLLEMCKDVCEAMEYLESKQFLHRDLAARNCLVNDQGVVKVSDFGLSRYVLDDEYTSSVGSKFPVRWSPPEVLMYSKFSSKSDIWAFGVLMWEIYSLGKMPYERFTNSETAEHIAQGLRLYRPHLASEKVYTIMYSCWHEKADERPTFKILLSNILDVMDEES
Text: as §1, §2

IRAK1 = molecular target: T7, IRAK1 (Homo sapiens, UniProt P51617)
T7 construct: purchased KinomeScan, a division of Ambit Biosciences
T7 sequence (P51617 whole entry): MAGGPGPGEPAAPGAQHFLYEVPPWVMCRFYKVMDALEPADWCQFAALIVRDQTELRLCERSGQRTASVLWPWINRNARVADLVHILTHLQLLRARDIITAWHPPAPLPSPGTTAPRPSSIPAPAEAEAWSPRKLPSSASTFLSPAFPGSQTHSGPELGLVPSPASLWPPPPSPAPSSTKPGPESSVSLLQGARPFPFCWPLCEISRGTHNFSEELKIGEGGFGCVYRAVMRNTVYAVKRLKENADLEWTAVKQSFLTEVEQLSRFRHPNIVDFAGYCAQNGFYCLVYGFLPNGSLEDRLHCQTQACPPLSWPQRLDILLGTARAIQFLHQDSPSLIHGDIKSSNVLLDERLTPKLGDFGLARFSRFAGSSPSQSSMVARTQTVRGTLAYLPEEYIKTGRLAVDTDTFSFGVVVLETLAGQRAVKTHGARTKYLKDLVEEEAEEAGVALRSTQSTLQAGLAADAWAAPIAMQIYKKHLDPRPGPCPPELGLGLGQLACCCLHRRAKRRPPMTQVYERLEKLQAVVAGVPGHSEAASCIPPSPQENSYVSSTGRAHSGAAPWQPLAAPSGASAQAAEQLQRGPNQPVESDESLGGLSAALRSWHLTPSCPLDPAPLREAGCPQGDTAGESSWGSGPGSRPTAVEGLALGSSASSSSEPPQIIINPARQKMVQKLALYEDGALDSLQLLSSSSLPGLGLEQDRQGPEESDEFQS
Text: as §1, §2

SLK = molecular target: T8, SLK (Homo sapiens, UniProt Q9H2G2)
T8 construct: purchased KinomeScan, a division of Ambit Biosciences
T8 sequence (Q9H2G2 whole entry): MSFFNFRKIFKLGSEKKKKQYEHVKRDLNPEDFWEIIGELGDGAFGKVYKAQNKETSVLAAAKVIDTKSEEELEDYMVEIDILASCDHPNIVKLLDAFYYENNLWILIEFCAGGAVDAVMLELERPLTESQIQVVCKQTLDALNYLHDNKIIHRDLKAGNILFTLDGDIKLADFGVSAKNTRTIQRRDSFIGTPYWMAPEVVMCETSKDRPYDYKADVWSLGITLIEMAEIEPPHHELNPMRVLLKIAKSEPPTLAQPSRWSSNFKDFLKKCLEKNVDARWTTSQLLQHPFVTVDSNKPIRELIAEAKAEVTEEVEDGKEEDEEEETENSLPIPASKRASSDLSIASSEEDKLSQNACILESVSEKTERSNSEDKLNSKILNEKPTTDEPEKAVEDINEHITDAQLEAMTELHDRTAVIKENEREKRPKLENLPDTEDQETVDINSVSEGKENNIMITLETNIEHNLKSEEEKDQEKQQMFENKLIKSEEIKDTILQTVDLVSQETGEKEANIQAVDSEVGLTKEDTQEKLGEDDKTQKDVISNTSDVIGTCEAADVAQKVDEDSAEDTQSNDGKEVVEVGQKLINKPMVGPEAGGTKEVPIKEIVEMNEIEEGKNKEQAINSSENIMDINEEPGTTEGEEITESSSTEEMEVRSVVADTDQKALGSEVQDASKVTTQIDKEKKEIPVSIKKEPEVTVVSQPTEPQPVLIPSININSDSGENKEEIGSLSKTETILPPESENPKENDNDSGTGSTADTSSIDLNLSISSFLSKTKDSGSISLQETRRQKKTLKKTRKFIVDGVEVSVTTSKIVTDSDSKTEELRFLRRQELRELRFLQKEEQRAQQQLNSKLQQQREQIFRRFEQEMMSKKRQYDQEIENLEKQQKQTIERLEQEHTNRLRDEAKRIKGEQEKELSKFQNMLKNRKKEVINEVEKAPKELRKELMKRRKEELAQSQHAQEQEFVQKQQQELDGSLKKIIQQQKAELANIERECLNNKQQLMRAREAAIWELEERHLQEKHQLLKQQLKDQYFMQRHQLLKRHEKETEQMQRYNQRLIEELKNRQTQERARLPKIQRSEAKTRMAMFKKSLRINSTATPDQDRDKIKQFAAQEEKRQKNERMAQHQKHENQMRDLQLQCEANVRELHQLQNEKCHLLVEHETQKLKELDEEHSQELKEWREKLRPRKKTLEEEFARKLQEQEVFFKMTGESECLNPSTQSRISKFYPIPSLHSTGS
Text: as §1, §2

T1 sequence (P49760 whole entry): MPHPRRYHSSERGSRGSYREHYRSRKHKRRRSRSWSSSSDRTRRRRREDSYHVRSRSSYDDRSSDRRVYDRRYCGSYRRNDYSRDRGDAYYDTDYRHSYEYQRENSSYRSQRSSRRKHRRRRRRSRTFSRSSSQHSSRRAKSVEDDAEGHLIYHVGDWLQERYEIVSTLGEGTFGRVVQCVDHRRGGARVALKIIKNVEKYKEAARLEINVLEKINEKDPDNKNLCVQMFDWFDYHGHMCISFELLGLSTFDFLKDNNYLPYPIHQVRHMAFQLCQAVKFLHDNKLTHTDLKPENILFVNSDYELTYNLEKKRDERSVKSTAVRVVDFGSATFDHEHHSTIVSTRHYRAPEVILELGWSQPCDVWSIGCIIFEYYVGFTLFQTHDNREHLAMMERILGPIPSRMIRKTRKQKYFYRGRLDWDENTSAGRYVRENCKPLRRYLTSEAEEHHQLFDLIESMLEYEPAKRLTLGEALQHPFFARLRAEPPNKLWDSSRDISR

Row | SMILES | POC ligand binding, CLK2 (CLK2; 10 µM) | POC ligand binding, EGFR (G719C) (EGFR (G719C); 10 µM) | POC ligand binding, MEK3 (MEK3; 10 µM) | POC ligand binding, MAPKAPK5 (MAPKAPK5; 10 µM) | POC ligand binding, FLT3 (D835Y) (FLT3 (D835Y); 10 µM) | POC ligand binding, BTK (BTK) | POC ligand binding, IRAK1 (IRAK1; 10 µM) | POC ligand binding, SLK (SLK; 10 µM) | POC ligand binding, CLK2 (CLK2) | POC ligand binding, EGFR (G719C) (EGFR (G719C)) | POC ligand binding, MEK3 (MEK3) | POC ligand binding, MAPKAPK5 (MAPKAPK5) | POC ligand binding, FLT3 (D835Y) (FLT3 (D835Y)) | POC ligand binding, IRAK1 (IRAK1) | POC ligand binding, SLK (SLK)
1 | N#Cc1ccc2ncnc(NCc3ccc4ccccc4c3)c2c1 [compound 43] | 9.6 POC | 53 POC | 64 POC | 85 POC | 76 POC | 100 POC | 7.6 POC | 92 POC |  |  |  |  |  |  | 
2 | CCCNc1ncnc2ccc(N3CCOCC3)cc12 [compound 46] |  |  |  |  |  | 81 POC |  |  | 66 POC | 61 POC | 100 POC | 91 POC | 19 POC | 81 POC | 88 POC
3 | N#Cc1ccc2ncnc(NCc3ccc(Cl)cc3)c2c1 [compound 20] |  |  |  |  |  | 100 POC |  |  | 16 POC | 34 POC | 76 POC | 92 POC | 69 POC | 26 POC | 61 POC
4 | N#Cc1ccc2ncnc(NCCc3ccc4ccccc4c3)c2c1 [compound 26] |  |  |  |  |  | 100 POC |  |  | 58 POC | 68 POC | 78 POC | 100 POC | 55 POC | 89 POC | 73 POC
5 | N#Cc1ccc2ncnc(NCCc3ccccc3)c2c1 [compound 1] |  |  |  |  |  | 15 POC |  |  | 3.8 POC | 13 POC | 18 POC | 15 POC | 19 POC | 8.2 POC | 11 POC
6 | COc1ccc2ncnc(NCCc3ccccc3)c2c1 [compound 44] |  |  |  |  |  | 100 POC |  |  | 34 POC | 0.85 POC | 72 POC | 94 POC | 55 POC | 64 POC | 43 POC
7 | CC(C)CNc1ncnc2ccc(C(F)(F)F)cc12 [compound 45] |  |  |  |  |  | 100 POC |  |  | 8.6 POC | 59 POC | 71 POC | 100 POC | 4.7 POC | 25 POC | 59 POC
8 | N#Cc1ccc2ncnc(NCc3ccc4ccccc4c3)c2c1 [compound 14] | 24 POC | 92 POC | 29 POC | 100 POC | 32 POC | 100 POC | 35 POC | 90 POC |  |  |  |  |  |  | 
